Assay results published in patent US8741934B2, “Inhibitors of ion channels” (Pfizer Limited, priority 2007, dated 2014).
Like-named read-outs stand apart in the source and are kept apart here.

Molecular target: T1, hSCN3A sodium channels (Homo sapiens, UniProt Q9NY46)
T1 construct: expressed in transfected cells
Assay: hSCN3A electrophysiology, whole-cell patch-clamp or PatchXpress 7000, estimated IC-50 (Table B)
Format: cell-based
Conditions: read-out: SCN3A EIC-50
Summary of the method: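 A 20 msec test pulse to 0 mV followed an 8 sec conditioning prepulse at each cell's measured V1/2. Room-temperature (22-24° C) recordings on HEK cells stably expressing the channel, conventional or PatchXpress.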

[1] = estimated IC-50, hSCN3A cells, whole-cell patch-clamp or PatchXpress 7000

T1 sequence (Q9NY46 whole entry): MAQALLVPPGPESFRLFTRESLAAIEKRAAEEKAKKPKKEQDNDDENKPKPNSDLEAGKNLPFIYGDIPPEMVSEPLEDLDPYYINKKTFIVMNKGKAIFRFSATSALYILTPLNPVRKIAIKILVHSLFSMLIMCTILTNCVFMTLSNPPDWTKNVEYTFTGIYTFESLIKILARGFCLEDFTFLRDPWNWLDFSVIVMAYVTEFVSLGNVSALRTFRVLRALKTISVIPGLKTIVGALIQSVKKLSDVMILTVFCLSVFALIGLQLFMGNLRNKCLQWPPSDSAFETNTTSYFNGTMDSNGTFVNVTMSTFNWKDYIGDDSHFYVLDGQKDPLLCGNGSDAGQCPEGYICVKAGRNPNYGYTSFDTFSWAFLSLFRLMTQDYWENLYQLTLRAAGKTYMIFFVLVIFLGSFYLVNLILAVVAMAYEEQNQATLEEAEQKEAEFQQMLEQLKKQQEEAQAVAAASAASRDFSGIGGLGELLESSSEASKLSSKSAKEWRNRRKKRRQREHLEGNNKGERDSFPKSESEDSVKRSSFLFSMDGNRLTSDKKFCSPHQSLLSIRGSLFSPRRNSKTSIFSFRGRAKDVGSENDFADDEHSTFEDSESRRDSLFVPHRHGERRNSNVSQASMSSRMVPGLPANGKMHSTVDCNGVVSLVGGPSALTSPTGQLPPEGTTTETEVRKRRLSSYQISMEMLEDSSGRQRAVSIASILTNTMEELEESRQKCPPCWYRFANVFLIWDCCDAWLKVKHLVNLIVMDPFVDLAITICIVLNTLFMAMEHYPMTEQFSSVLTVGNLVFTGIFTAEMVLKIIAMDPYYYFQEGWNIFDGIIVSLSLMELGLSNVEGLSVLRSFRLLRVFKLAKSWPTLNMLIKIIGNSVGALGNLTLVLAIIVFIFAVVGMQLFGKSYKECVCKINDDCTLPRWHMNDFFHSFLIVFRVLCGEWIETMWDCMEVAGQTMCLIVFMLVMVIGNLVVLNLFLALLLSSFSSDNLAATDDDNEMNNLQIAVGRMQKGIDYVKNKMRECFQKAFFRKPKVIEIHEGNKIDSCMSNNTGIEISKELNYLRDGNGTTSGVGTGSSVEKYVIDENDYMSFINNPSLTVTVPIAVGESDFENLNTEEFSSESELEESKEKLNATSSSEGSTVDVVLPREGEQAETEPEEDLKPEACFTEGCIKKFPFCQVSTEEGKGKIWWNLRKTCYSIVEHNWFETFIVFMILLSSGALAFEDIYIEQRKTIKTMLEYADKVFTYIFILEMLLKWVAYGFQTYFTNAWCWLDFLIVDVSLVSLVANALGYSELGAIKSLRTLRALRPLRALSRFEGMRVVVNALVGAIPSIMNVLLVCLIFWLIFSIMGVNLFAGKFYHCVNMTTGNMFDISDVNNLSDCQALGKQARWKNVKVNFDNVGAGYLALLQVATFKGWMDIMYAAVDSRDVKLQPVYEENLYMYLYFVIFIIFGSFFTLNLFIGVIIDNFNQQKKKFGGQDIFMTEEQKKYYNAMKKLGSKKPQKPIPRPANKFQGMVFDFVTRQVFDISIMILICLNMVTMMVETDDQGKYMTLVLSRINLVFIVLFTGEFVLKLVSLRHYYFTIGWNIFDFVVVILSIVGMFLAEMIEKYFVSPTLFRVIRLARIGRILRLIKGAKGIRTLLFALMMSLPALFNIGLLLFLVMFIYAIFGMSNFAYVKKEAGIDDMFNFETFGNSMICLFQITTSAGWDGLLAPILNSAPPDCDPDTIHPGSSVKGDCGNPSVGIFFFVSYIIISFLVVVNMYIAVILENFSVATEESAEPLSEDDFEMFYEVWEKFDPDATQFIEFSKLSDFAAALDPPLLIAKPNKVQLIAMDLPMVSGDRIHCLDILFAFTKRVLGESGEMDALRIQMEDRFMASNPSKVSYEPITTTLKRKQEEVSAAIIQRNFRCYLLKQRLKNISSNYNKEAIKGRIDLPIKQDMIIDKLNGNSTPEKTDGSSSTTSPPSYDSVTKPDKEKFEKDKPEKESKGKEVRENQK

| Molecule | IC50 [1] [nM] | IC50 [nM] |
| --- | --- | --- |
| O=C(NCc1ccc(OC(F)(F)F)c(F)c1)c1ccc(S(=O)(=O)Nc2nccs2)cn1 [Example 343, N-[3-fluoro-4-(trifluoromethoxy)benzyl]-5-[(1,3-thiazol-2-ylamino)sulfonyl] pyridine-2-carboxamide] | 310 | – |
| Cc1nn(C)c(C)c1NS(=O)(=O)c1ccc(C(=O)NCc2ccc(C(F)(F)F)cc2)cc1 [Example 27, N-[4-(Trifluoromethyl)benzyl]-4-{[(1,3,5-trimethyl-1H-pyrazol-4-yl)amino]sulfonyl}benzamide] | 23300 | – |
| N#Cc1cc(S(=O)(=O)Nc2ncc(Cl)s2)ccc1C(=O)NCc1ccc(C(F)(F)F)c(F)c1 [Example 348, 4-{[(5-Chloro-1,3-thiazol-2-yl)amino]sulfonyl}-2-cyano-N-[3-fluoro-4-(trifluoromethyl)benzyl]benzamide] | 1580 | – |
| O=C(NCc1ccc(Cl)c(F)c1)c1ccc(S(=O)(=O)Nc2nccs2)c(F)c1 [Example 295, N-(4-chloro-3-fluorobenzyl)-3-fluoro-4-[(1,3-thiazol-2-ylamino)sulfonyl]benzamide] | 220 | – |
| O=C(NCc1cccc(-c2ccccc2)c1)c1ccc(S(=O)(=O)Nc2nccs2)cc1 [Example 411, N-(biphenyl-3-ylmethyl)-4-[(1,3-thiazol-2-ylamino)sulfonyl] benzamide] | 120 | – |
| O=C(NCc1ccc(F)c(C(F)(F)F)c1)c1ccc(S(=O)(=O)Nc2nccs2)c(Cl)c1 [Example 290, 3-Chloro-N-[4-fluoro-3-(trifluoromethyl)benzyl]-4-[(1,3-thiazol-2-yl-amino)sulfonyl]benzamide] | 1390 | – |
| O=C(Nc1cnn(Cc2ccc(Cl)cc2)c1)c1ccc(S(=O)(=O)Nc2ncc(Cl)s2)c(F)c1 [Example 381, N-[1-(4-chlorobenzyl)-1H-pyrazol-4-yl]-4-{[(5-chloro-1,3-thiazol-2-yl)amino]sulfonyl}-3-fluorobenzamide] | 120 | – |
| Cc1c(Cl)cccc1CNC(=O)c1ccc(S(=O)(=O)Nc2nccs2)cc1 [Example 61, N-(3-chloro-2-methylbenzyl)-4-[(1,3-thiazol-2-ylamino)sulfonyl]benzamide] | 160 | – |
| O=C(NC1(Cc2ccc(Cl)cc2)CC1)c1ccc(S(=O)(=O)Nc2nccs2)cc1 [Example 134, N-[1-(4-chlorobenzyl)cyclopropyl]-4-[(1,3-thiazol-2-ylamino)sulfonyl]benzamide] | 2280 | – |
| Cc1cccc(OC2CCCN(C(=O)c3ccc(S(=O)(=O)Nc4nccs4)cc3)C2)c1 (stereo not shown) [Example 51, 4-{[3-(3-Methylphenoxy)piperidin-1-yl]carbonyl}-N-1,3-thiazol-2-ylbenzenesulfonamide] | 6580 | – |
| O=C(NCc1ccc(-n2cccn2)cc1)c1ccc(S(=O)(=O)Nc2nccs2)cc1 [Example 60, N-[4-(1H-pyrazol-1-yl)benzyl]-4-[(1,3-thiazol-2-ylamino)sulfonyl]benzamide] | 1500 | – |
| O=C(NCc1ccc(Cl)c(Cl)c1)c1ccc(S(=O)(=O)Nc2nccs2)c(Cl)c1 [Example 291, 3-Chloro-N-(3,4-dichlorobenzyl)-4-[(1,3-thiazol-2-ylamino)sulfonyl]benzamide] | 710 | – |
| 4-[(1,3-Thiazol-2-ylamino)sulfonyl]-N-(4-isopropyloxybenzyl)benzamide [Example 69] | 770 | – |
| Cc1noc(NS(=O)(=O)c2ccc(C(=O)NCc3ccc(C(F)(F)F)cc3)cc2)c1C [Example 12, 4-{[(3,4-Dimethylisoxazol-5-yl)amino]sulfonyl}-N-[4-(trifluoromethyl)benzyl]benzamide] | 29600 | – |
| O=C(NCc1ccc(C(F)(F)F)c(F)c1)c1ccc(S(=O)(=O)Nc2ncns2)cc1 [Example 323, N-[3-fluoro-4-(trifluoromethyl)benzyl]-4-[(1,2,4-thiadiazol-5-ylamino)sulfonyl]benzamide] | 190 | – |
| O=C(NCc1ccc(OC(F)(F)F)c(F)c1)c1ccc(S(=O)(=O)Nc2ncc(Cl)s2)cc1 [Example 38] | 60 | – |
| O=C(Nc1ccc2c(n1)CCC2)c1ccc(S(=O)(=O)Nc2nccs2)cc1 [Example 172, N-(6,7-dihydro-5H-cyclopenta[b]pyridin-2-yl)-4-[(1,3-thiazol-2-ylamino)sulfonyl]benzamide] | 6520 | – |
| Cc1cc(Cl)ccc1CNC(=O)c1ccc(S(=O)(=O)Nc2nccs2)cc1 [Example 414, N-(4-chloro-2-methylbenzyl)-4-[(1,3-thiazol-2-ylamino)sulfonyl] benzamide] | 240 | – |
| CC(CNC(=O)c1ccc(S(=O)(=O)Nc2nccs2)cc1)Oc1ccccc1Cl (stereo not shown) [Example 147, N-[2-(2-chlorophenoxy)propyl]-4-[(1,3-thiazol-2-ylamino)sulfonyl]benzamide] | 2520 | – |
| CCc1nsc(NS(=O)(=O)c2ccc(C(=O)NCc3ccc(C(F)(F)F)cc3)cc2)n1 [Example 19, 4-{[(3-Ethyl-1,2,4-thiadiazol-5-yl)amino]sulfonyl}-N-[4-(trifluoromethyl)benzyl]benzamide] | 13800 | – |

| Molecule | IC50 [1] [nM] | IC50 [nM] |
| --- | --- | --- |
| O=C(NCc1ccc(F)c(Cl)c1)c1ccc(S(=O)(=O)Nc2ncc(Cl)s2)cc1 [Example 36, N-(3-Chloro-4-fluorobenzyl)-4-{[(5-chloro-1,3-thiazol-2-yl)amino]sulfonyl}benzamide] | 70 | – |
| Cc1cc(NC(=O)c2ccc(S(=O)(=O)Nc3nccs3)cc2)n(-c2ccccc2)n1 [Example 307, N-(3-methyl-1-phenyl-1H-pyrazol-5-yl)-4-[(1,3-thiazol-2-ylamino)sulfonyl]benzamide] | 23700 | – |
| O=C(NCc1ccc(C(F)(F)F)c(F)c1)c1ccc(S(=O)(=O)Nc2ncc(Cl)s2)cn1 [Example 345, 5-{[(5-Chloro-1,3-thiazol-2-yl)amino]sulfonyl}-N-[3-fluoro-4-(trifluoromethyl)benzyl] pyridine-2-carboxamide] | – | 270 |
| O=C(c1ccc(S(=O)(=O)Nc2nccs2)cc1)N1CC[C@@H](Oc2ccccc2Cl)C1 [Example 247, 4-{[(3R)-3-(2-chlorophenoxy)pyrrolidin-1-yl]carbonyl}-N-1,3-thiazol-2-yl-benzenesulfonamide] | > 1000 | – |
| O=C(NCc1ccc(F)c(C(F)(F)F)c1)c1ccc(S(=O)(=O)Nc2nccs2)cc1F [Example 336, 2-Fluoro-N-[4-fluoro-3-(trifluoromethyl)benzyl]-4-[(1,3-thiazol-2-ylamino)sulfonyl] benzamide] | 240 | – |
| O=C(NCCc1ccccc1)c1ccc(S(=O)(=O)Nc2nccs2)cc1 [Example 163, N-(2-phenylethyl)-4-[(1,3-thiazol-2-ylamino)sulfonyl]benzamide] | 5050 | – |
| O=C(NCc1ccc(F)cc1F)c1ccc(S(=O)(=O)Nc2nccs2)cc1 [Example 94, N-(2,4-difluorobenzyl)-4-[(1,3-thiazol-2-ylamino)sulfonyl]benzamide] | > 100 | – |
| O=C(NCc1ccc(F)c(F)c1)c1ccc(S(=O)(=O)Nc2ncc(Cl)s2)cc1F [Example 361, 4-{[(5-Chloro-1,3-thiazol-2-yl)amino]sulfonyl}-N-(3,4-difluorobenzyl)-2-fluorobenzamide] | 310 | – |
| O=C(NCc1ccc(F)c(F)c1)c1ccc(S(=O)(=O)Nc2nccs2)cc1F [Example 329, N-(3,4-difluorobenzyl)-2-fluoro-4-[(1,3-thiazol-2-ylamino)sulfonyl] benzamide] | 360 | – |
| O=C(NCc1ccc(C(F)(F)F)cc1)c1ccc(S(=O)(=O)Nc2ncc(Cl)s2)c(F)c1 [Example 315, 4-{[(5-Chloro-1,3-thiazol-2-yl)amino]sulfonyl}-3-fluoro-N-[4-(trifluoromethyl)benzyl] benzamide] | 110 | – |
| C[C@H]1CN(C(=O)c2ccc(S(=O)(=O)Nc3nccs3)cc2)C[C@@H]1COc1ccccc1 [Example 49, 4-{[(3R,4R)-3-methyl-4-(phenoxymethyl)pyrrolidin-1-yl]carbonyl}-N-1,3-thiazol-2-ylbenzenesulfonamide] | 1150 | – |
| Cc1noc(C)c1NS(=O)(=O)c1ccc(C(=O)NCc2ccc(C(F)(F)F)cc2)cc1 [Example 26, 4-{[(3,5-Dimethylisoxazol-4-yl)amino]sulfonyl}-N-[4-(trifluoromethyl)benzyl]benzamide] | > 10000 | – |
| O=C(NCc1cc(Cl)ccc1Cl)c1ccc(S(=O)(=O)Nc2nccs2)cc1 [Example 126, N-(2,5-dichlorobenzyl)-4-[(1,3-thiazol-2-ylamino)sulfonyl]benzamide] | 290 | – |
| O=C(NCc1cccc(C(F)(F)F)c1)c1ccc(S(=O)(=O)Nc2ncc(Cl)s2)c(Cl)c1 [Example 372, 3-Chloro-4-{[(5-chloro-1,3-thiazol-2-yl)amino]sulfonyl}-N-[3-(trifluoromethyl)benzyl] benzamide] | 2260 | – |
| COc1cc(OC(F)(F)F)ccc1CNC(=O)c1ccc(S(=O)(=O)Nc2nccs2)cc1 [Example 404, N-[2-methoxy-4-(trifluoromethoxy)benzyl]-4-[(1,3-thiazol-2-ylamino)sulfonyl] benzamide] | 140 | – |
| O=C(NCc1ccc(C(F)(F)F)cc1)c1ccc(S(=O)(=O)Nc2nc(C(F)(F)F)cs2)cc1 [Example 4, N-[4-(Trifluoromethyl)benzyl]-4-({[4-(trifluoromethyl)-1,3-thiazol-2-yl]amino}sulfonyl)benzamide] | 2530 | – |
| Cc1ccccc1CNC(=O)c1ccc(S(=O)(=O)Nc2nccs2)cc1 [Example 91, N-(2-methylbenzyl)-4-[(1,3-thiazol-2-ylamino)sulfonyl]benzamide] | 1220 | – |
| O=C(NCc1cccc(C(F)(F)F)c1F)c1ccc(S(=O)(=O)Nc2nccs2)cc1 [Example 392, N-[2-fluoro-3-(trifluoromethyl)benzyl]-4-[(1,3-thiazol-2-ylamino)sulfonyl]benzamide] | 230 | – |
| O=C(NCc1ccc(C(F)(F)F)cc1)c1ccc(S(=O)(=O)Nc2ncns2)cc1 [Example 20, 4-[(1,2,4-Thiadiazol-5-ylamino)sulfonyl]-N-[4-(trifluoromethyl)benzyl]benzamide] | 260 | – |
| O=C(NCc1ccc(C(F)(F)F)cc1)c1ccc(S(=O)(=O)Nc2cnoc2)cc1 [Example 23, 4-[(Isoxazol-4-ylamino)sulfonyl]-N-[4-(trifluoromethyl)benzyl]benzamide] | 23300 | – |
